Results from ChEMBL document CHEMBL1201862, “PubChem BioAssay data set” (2004).
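Tested at 5 concentrations; 48 h exposure; 96-well plates; endpoints linearly interpolated, else capped at highest concentration. GI50 is the concentration that inhibits growth by half.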 Active and inactive are the calls of the source. Cut-off read from the data, not from the text of the source: active = GI50 up to about 1.1 µM and inactive = higher.

What was measured:
Assay in all cases: NCI anticancer screen, dose series, 48 h
786-0 = test system: 786-0
A498 = test system: A498
A549 = test system: A549
ACHN = test system: ACHN
CAKI-1 = test system: CAKI-1
DU-145 = test system: DU-145
EKVX = test system: EKVX
HCC 2998 = test system: HCC 2998
HCT-116 = test system: HCT-116
HCT-15 = test system: HCT-15
HOP-62 = test system: HOP-62
HT-29 = test system: HT-29
Hs-578T = test system: Hs-578T
IGROV-1 = test system: IGROV-1
K562 = test system: K562
KM12 = test system: KM12
LOX IMVI = test system: LOX IMVI
M14 = test system: M14
MCF7 = test system: MCF7
MDA-MB-231 = test system: MDA-MB-231
MDA-MB-435 = test system: MDA-MB-435
MDA-N = test system: MDA-N
MOLT-4 = test system: MOLT-4
Malme-3M = test system: Malme-3M
NCI-H226 = test system: NCI-H226
NCI-H23 = test system: NCI-H23
NCI-H460 = test system: NCI-H460
NCI/ADR-RES = test system: NCI/ADR-RES
OVCAR-3 = test system: OVCAR-3
OVCAR-4 = test system: OVCAR-4
OVCAR-5 = test system: OVCAR-5
OVCAR-8 = test system: OVCAR-8
PC-3 = test system: PC-3
RPMI-8226 = test system: RPMI-8226
SF-268 = test system: SF-268
SF-295 = test system: SF-295
SF-539 = test system: SF-539
SK-MEL-28 = test system: SK-MEL-28
SK-MEL-2 = test system: SK-MEL-2
SK-MEL-5 = test system: SK-MEL-5
SK-OV-3 = test system: SK-OV-3
SN12C = test system: SN12C
SNB-19 = test system: SNB-19
SNB-75 = test system: SNB-75
SR = test system: SR
SW-620 = test system: SW-620
T47D = test system: T47D
TK-10 = test system: TK-10
U-251 = test system: U-251
UACC-257 = test system: UACC-257
UACC-62 = test system: UACC-62
UO-31 = test system: UO-31
CCRF-CEM = test system: CCRF-CEM
COLO 205 = test system: COLO 205
HL-60 = test system: HL-60
HOP-92 = test system: HOP-92
NCI-H522 = test system: NCI-H522
RXF 393 = test system: RXF 393

Measured: GI50

Cc1ccc(S(=O)(=O)N(CCNC(=O)c2cccc(O)c2O)c2cc3c4c(c2)Oc2cccc5c2C4(C)c2c(cccc2O3)O5)cc1
> 100 µM: HCT-15
inactive: 786-0 > 100 µM | A498 58.6 µM | A549 20.9 µM | ACHN > 100 µM | CAKI-1 > 100 µM | DU-145 > 100 µM | EKVX 37.4 µM | HCC 2998 > 100 µM | HCT-116 28.8 µM | HOP-62 55.6 µM | HT-29 > 100 µM | Hs-578T > 100 µM | IGROV-1 5.93 µM | K562 41.1 µM | KM12 > 100 µM | LOX IMVI 6.08 µM | M14 > 100 µM | MCF7 29.9 µM | MDA-MB-231 21.7 µM | MDA-MB-435 5.85 µM | MDA-N 6.93 µM | MOLT-4 > 100 µM | Malme-3M 29.2 µM | NCI-H226 7.74 µM | NCI-H23 > 100 µM | NCI-H460 > 100 µM | NCI/ADR-RES 2.54 µM | OVCAR-3 6.52 µM | OVCAR-4 > 100 µM | OVCAR-5 64.7 µM | OVCAR-8 > 100 µM | PC-3 36 µM | RPMI-8226 > 100 µM | SF-268 15.1 µM | SF-295 > 100 µM | SF-539 73.3 µM | SK-MEL-28 53.6 µM | SK-MEL-2 > 100 µM | SK-MEL-5 22.1 µM | SK-OV-3 57.1 µM | SN12C > 100 µM | SNB-19 > 100 µM | SNB-75 10.9 µM | SR 14.6 µM | SW-620 14.6 µM | T47D 6.17 µM | TK-10 > 100 µM | U-251 8.83 µM | UACC-257 > 100 µM | UACC-62 20.8 µM | UO-31 > 100 µM

CC(=O)N1C(=O)c2cc3ccccc3cc21
inactive: 786-0 > 100 µM | A498 24.7 µM | A549 > 100 µM | ACHN > 100 µM | CCRF-CEM 78.2 µM | COLO 205 > 100 µM | DU-145 > 100 µM | EKVX > 100 µM | HCC 2998 > 100 µM | HCT-116 61.4 µM | HL-60 > 100 µM | HOP-62 63.5 µM | HOP-92 62.7 µM | Hs-578T > 100 µM | IGROV-1 38.8 µM | K562 > 100 µM | LOX IMVI > 100 µM | M14 > 100 µM | MCF7 31.3 µM | MDA-MB-231 > 100 µM | MDA-MB-435 > 100 µM | MDA-N > 100 µM | NCI-H226 > 100 µM | NCI-H23 95.5 µM | NCI-H460 > 100 µM | NCI/ADR-RES > 100 µM | OVCAR-5 > 100 µM | OVCAR-8 > 100 µM | PC-3 > 100 µM | RPMI-8226 > 100 µM | SF-268 > 100 µM | SF-539 > 100 µM | SK-MEL-28 > 100 µM | SK-MEL-2 > 100 µM | SK-MEL-5 > 100 µM | SK-OV-3 > 100 µM | SN12C > 100 µM | SNB-19 > 100 µM | SNB-75 92.5 µM | SR > 100 µM | SW-620 > 100 µM | T47D > 100 µM | TK-10 > 100 µM | U-251 > 100 µM | UACC-62 > 100 µM | UO-31 > 100 µM
90.2 µM: HCT-15

NC(Cc1ccc(CP(=O)(O)O)cc1)C(=O)O (configuration not stated)
> 100 µM: HCT-15
inactive: A549 > 100 µM | ACHN > 100 µM | CAKI-1 11.5 µM | CCRF-CEM > 100 µM | COLO 205 > 100 µM | DU-145 > 100 µM | EKVX > 100 µM | HCC 2998 > 100 µM | HCT-116 > 100 µM | HL-60 > 100 µM | HOP-92 > 100 µM | HT-29 > 100 µM | Hs-578T > 100 µM | IGROV-1 > 100 µM | K562 > 100 µM | KM12 > 100 µM | LOX IMVI > 100 µM | M14 > 100 µM | MCF7 > 100 µM | MDA-MB-231 > 100 µM | MDA-MB-435 > 100 µM | MDA-N > 100 µM | MOLT-4 > 100 µM | NCI-H23 > 100 µM | NCI-H460 > 100 µM | NCI-H522 > 100 µM | NCI/ADR-RES > 100 µM | OVCAR-3 > 100 µM | OVCAR-4 > 100 µM | OVCAR-5 > 100 µM | OVCAR-8 > 100 µM | PC-3 > 100 µM | RPMI-8226 > 100 µM | RXF 393 > 100 µM | SF-268 > 100 µM | SF-295 > 100 µM | SF-539 > 100 µM | SK-MEL-28 > 100 µM | SK-MEL-2 > 100 µM | SK-MEL-5 > 100 µM | SK-OV-3 > 100 µM | SN12C > 100 µM | SNB-19 > 100 µM | SNB-75 > 100 µM | SR > 100 µM | SW-620 > 100 µM | T47D > 100 µM | TK-10 > 100 µM | U-251 > 100 µM | UACC-257 > 100 µM | UACC-62 > 100 µM | UO-31 > 100 µM
